The nature of data set [1]: Induction of NO release per molar ratio of compound at 250 uM irradiated with 400 to 440 nm light in presence of Fe-DETC complex by ESR spectrometry. It counts as physicochemical.
The nature of data set [2]: Induction of NO release per molar ratio of compound at 250 uM irradiated with 450 to 480 nm light in presence of Fe-DETC complex by ESR spectrometry. The format is physicochemical.

Consider `COc1cc(/C=C/c2cc(C)c([N+](=O)[O-])c(C)c2)c(OC)cc1C#Cc1cc(OC)c(/C=C/c2cc(C)c([N+](=O)[O-])c(C)c2)cc1OC`, for which the Activity in data set [1] is given as 9.2%. In the case of `COc1cc(/C=C/c2cc(OC)c(/C=C/c3cc(C)c([N+](=O)[O-])c(C)c3)cc2OC)c(OC)cc1/C=C/c1cc(C)c([N+](=O)[O-])c(C)c1`, the figures for the Activity in data set [1] and in data set [2] were 1% and 0.86%, respectively.

Take `COc1cc(/C=C/c2cc(C)c([N+](=O)[O-])c(C)c2)c(OC)cc1C#CC#Cc1cc(OC)c(/C=C/c2cc(C)c([N+](=O)[O-])c(C)c2)cc1OC`: the Activity in data set [1] came to 9.7%. For `COc1cc(/C=C/c2cc(C)c([N+](=O)[O-])c(C)c2)c(OC)cc1/C=C/C=C/c1cc(OC)c(/C=C/c2cc(C)c([N+](=O)[O-])c(C)c2)cc1OC`, the values for the Activity in data set [1] and in data set [2] were 0.96% and 0.54%, respectively.
